Patent publication US8084479B2, “Thiazole compounds and methods of use” (Amgen Inc., priority 2006, dated 2011)
pIC50: −log10 of the molar value. Counter-ions that a name gives are not always drawn.

Molecular target: PKBα (Homo sapiens, UniProt P31749)
Assay: PKB kinase assay (P33-labeled ATP, peptide substrate, filter plate)
Format: biochemical
Settings: PKBα enzyme (full length or kinase domain with pleckstrin domain deleted)
Text: The kinase assay for evaluating PKB activity comprises active PKB enzymes, a PKB specific substrate, and P^33-labeled ATP. […] The phosphorylated substrate was captured by a phosphocellulose membrane filter plate (MLLIPORE) and measured by a Wallac Microbeta liquid scintillation counter (Perkin Elmer).

Chain of PKBα (P31749 118-480 limits assumed): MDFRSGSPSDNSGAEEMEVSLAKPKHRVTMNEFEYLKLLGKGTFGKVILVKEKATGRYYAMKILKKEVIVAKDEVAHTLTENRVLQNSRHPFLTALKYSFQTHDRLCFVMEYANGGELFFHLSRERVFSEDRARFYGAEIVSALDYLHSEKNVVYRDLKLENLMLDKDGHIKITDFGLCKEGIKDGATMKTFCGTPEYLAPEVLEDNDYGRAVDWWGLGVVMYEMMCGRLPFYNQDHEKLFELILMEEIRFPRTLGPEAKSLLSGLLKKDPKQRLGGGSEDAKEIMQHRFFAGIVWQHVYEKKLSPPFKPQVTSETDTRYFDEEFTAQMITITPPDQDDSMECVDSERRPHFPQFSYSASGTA

| pIC50 | SMILES |
| --- | --- |
| > 7.30 | COc1cc(C[C@H](N)CNc2ncc(-c3ccc4c(c3)CC(=O)N4)s2)ccc1C(F)(F)F [Example 206, 5-(2-((S)-2-amino-3-(3-methoxy-4-(trifluoromethyl)phenyl)propylamino)thiazol-5-yl)indolin-2-one] |
| > 7.30 | N[C@H](CNc1ncc(-c2ccc3c(c2)CC(=O)N3)s1)Cc1ccc(C(F)(F)F)c(F)c1 [Example 185, 5-(2-((S)-2-amino-3-(3-fluoro-4-(trifluoromethyl)phenyl)propylamino)thiazol-5-yl)indolin-2-one] |
| > 7.30 | N[C@H](CNc1nc(C#CCO)c(-c2ccc3[nH]c(=O)oc3c2)s1)Cc1ccc(C(F)(F)F)cc1 [Example 150, 6-(2-((S)-2-amino-3-(4-(trifluoromethyl)phenyl)propylamino)-4-(3-hydroxyprop-1-ynyl)thiazol-5-yl)benzo[d]oxazol-2(3H)-one] |
| > 7.30 | NC(CNc1ncc(-c2ccc3[nH]c(=O)oc3c2)s1)Cc1ccc(C(F)(F)F)c(F)c1 (stereo not drawn) [Example 181, 6-(2-(2-amino-3-(3-fluoro-4-(trifluoromethyl)phenyl)propylamino)thiazol-5-yl)benzo[d]oxazol-2(3H)-one] |
| 6.00 to 7.30 | N[C@H](CNc1ncc(-c2ccc3c(c2)CC(=O)N3)s1)Cc1ccc2ccccc2c1 [Example 201, 5-(2-((S)-2-amino-3-(naphthalen-2-yl)propylamino)thiazol-5-yl)indolin-2-one] |
| > 7.30 | N[C@H](CNc1ncc(-c2ccc3cnccc3c2)s1)Cc1ccc(Cl)c(F)c1 [Example 85, N—((S)-2-Amino-3-(4-chloro-3-fluorophenyl)propyl)-5-(isoquinolin-6-yl)thiazol-2-amine] |
| 6.00 to 7.30 | N[C@@H](CNc1ncc(-c2ccc3[nH]c(=O)oc3c2)s1)Cc1ccc(C(F)(F)F)c(F)c1 [Example 182, 6-(2-((R)-2-amino-3-(3-fluoro-4-(trifluoromethyl)phenyl)propylamino)thiazol-5-yl)benzo[d]oxazol-2(3H)-one] |
| > 7.30 | COc1cc(C[C@H](N)CNc2ncc(-c3ccc4cnccc4c3)s2)ccc1C(F)(F)F [Example 205, N—((S)-2-amino-3-(3-methoxy-4-(trifluoromethyl)phenyl)propyl)-5-(isoquinolin-6-yl)thiazol-2-amine] |
| 6.00 to 7.30 | COc1ccc(CC(N)CNc2ncc(-c3ccc4[nH]c(=O)oc4c3)s2)cc1F (stereo not drawn) [Example 129, 6-(2-(2-Amino-3-(3-fluoro-4-methoxyphenyl)propylamino)-thiazol-5-yl)benzo[d]oxazol-2(3H)-one] |
| > 7.30 | NC(CNc1ncc(-c2ccc3[nH]c(=O)oc3c2)s1)Cc1ccc(C(F)(F)F)cc1F (stereo not drawn) [Example 178, 6-(2-(-2-amino-3-(2-fluoro-4-(trifluoromethyl)phenyl)propylamino)thiazol-5-yl)benzo[d]oxazol-2(3H)-one] |
| > 7.30 | N[C@H](CNc1ncc(-c2ccc3[nH]c(=O)oc3c2)s1)Cc1ccc(C(F)(F)F)c(F)c1 [Example 183, 6-(2-((S)-2-amino-3-(3-fluoro-4-(trifluoromethyl)phenyl)propylamino)thiazol-5-yl)benzo[d]oxazol-2(3H)-one] |
| 6.00 to 7.30 | COc1cc(C[C@H](N)CNc2ncc(-c3ccc4c(c3)CC(=O)N4)s2)cnc1C(F)(F)F [Example 174, 5-(2-((S)-2-amino-3-(5-methoxy-6-(trifluoromethyl)pyridin-3-yl)propylamino)thiazol-5-yl)indolin-2-one] |
| > 7.30 | NC(CNc1ncc(-c2ccc3cnccc3c2)s1)Cc1ccc(O)c(F)c1 (stereo not drawn) [Example 218, 4-(2-Amino-3-(5-(isoquinolin-6-yl)thiazol-2-ylamino)propyl)-2-fluorophenol] |

The next lines start with the molecule.

| SMILES | pIC50 |
| --- | --- |
| N[C@H](CNc1nc(C#CCO)c(-c2ccc3c(c2)CC(=O)N3)s1)Cc1ccc(C(F)(F)F)cc1 [Example 145, 5-(2-((S)-2-amino-3-(4-(trifluoromethyl)phenyl)propylamino)-4-(3-hydroxyprop-1-ynyl)thiazol-5-yl)indolin-2-one] | > 7.30 |
| N[C@H](CNc1ncc(-c2ccc3c(c2)/C(=C\c2cnc[nH]2)C(=O)N3)s1)Cc1c[nH]c2ccccc12 (stereo in doubt) [Example 73, (E)-3-((1H-imidazol-5-yl)methylene)-6-(2-((S)-2-amino-3-(1H-indol-3-yl)propylamino)thiazol-5-yl)indolin-2-one ditrifluoroacetates] | 6.00 to 7.30 |
| N[C@H](CNc1ncc(-c2ccc3c(c2)CC(=O)N3)s1)Cc1ccc(Cl)s1 [Example 212, 5-(2-((S)-2-amino-3-(5-chlorothiophen-2-yl)propylamino)thiazol-5-yl)indolin-2-one] | 6.00 to 7.30 |
| Cc1nc(NC[C@@H](N)Cc2ccccc2)sc1-c1ccc2[nH]nc(C)c2c1 [Example 7, N—((S)-2-amino-3-phenylpropyl)-4-methyl-5-(3-methyl-1H-indazol-5-yl)thiazol-2-amine] | 5.00 to 6.00 |
| C[C@@H](c1ccc(C(F)(F)F)cc1)[C@H](N)CNc1ncc(-c2ccc3[nH]c(=O)n(C)c3c2)s1 [Example 93, 6-(2-((2S,3S)-2-amino-3-(4-(trifluoromethyl)phenyl)butylamino)thiazol-5-yl)-1-methyl-1H-benzo[d]imidazol-2(3H)-one] | 6.00 to 7.30 |
| N[C@H](CNc1ncc(-c2ccc3cnncc3c2)s1)Cc1ccc(C(F)(F)F)cc1 [Example 64, N—((S)-2-amino-3-(4-(trifluoromethyl)phenyl)propyl)-5-(phthalazin-6-yl)thiazol-2-amine] | 6.00 to 7.30 |
| N[C@H](CNc1nc(O)c(-c2ccc(F)c(F)c2)s1)Cc1ccc(Cl)cc1 [Example 80, 2-((S)-2-Amino-3-(4-chlorophenyl)propylamino)-5-(3,4-difluorophenyl)thiazol-4-ol dihydrochloride] | 6.00 to 7.30 |
| N[C@H](CNc1nc(C#CCO)c(-c2ccc3cnccc3c2)s1)Cc1ccc(C(F)(F)F)cc1 [Example 140, 3-(2-((S)-2-amino-3-(4-(trifluoromethyl)phenyl)propylamino)-5-(isoquinolin-6-yl)thiazol-4-yl)prop-2-yn-1-ol] | > 7.30 |
| C[C@@H](c1ccc(C(F)(F)F)cc1)[C@H](N)CNc1ncc(-c2ccc3c(c2)CC(=O)N3)s1 [Example 92, 5-(2-((2S,3S)-2-Amino-3-(4-(trifluoromethyl)phenyl)butylamino)thiazol-5-yl)indolin-2-one methane sulfonic acid salt] | > 7.30 |
| CCC[C@@H](c1ccc(C(F)(F)F)cc1)[C@H](N)CNc1ncc(-c2ccc3cnccc3c2)s1 [Example 157, N-((2S,3S)-2-amino-3-(4-(trifluoromethyl)phenyl)hexyl)-5-(isoquinolin-6-yl)thiazol-2-amine] | > 7.30 |
| c1ccc(CNc2ncc(-c3nc4ccncc4s3)s2)cc1 [Example 28, N-benzyl-5-(thiazolo[5,4-c]pyridin-2-yl)thiazol-2-amine] | 5.00 to 6.00 |
| N[C@H](CNc1ncc(-c2ccc3nnccc3c2)s1)Cc1ccc(C(F)(F)F)cc1 [Example 254, N—((S)-2-amino-3-(4-(trifluoromethyl)phenyl)propyl)-5-(cinnolin-6-yl)thiazol-2-amine] | 6.00 to 7.30 |
| CN(C)Cc1nc(NC[C@@H](N)Cc2ccc(C(F)(F)F)cc2)sc1-c1ccc2cnccc2c1 [Example 81, N—((S)-2-Amino-3-(4-(trifluoromethyl)phenyl)propyl)-4-((dimethylamino)methyl)-5-(isoquinolin-6-yl)thiazol-2-amine] | 6.00 to 7.30 |
| Nc1noc2ccc(-c3cnc(NC[C@@H](N)Cc4c[nH]c5ccccc45)s3)cc12 [Example 38, 5-(2-((S)-2-amino-3-(1H-indol-3-yl)propylamino)thiazol-5-yl)benzo[d]isoxazol-3-amine] | 6.00 to 7.30 |
| N[C@H](CNc1nc(C2CC2)c(-c2ccc3cnccc3c2)s1)Cc1ccc(C(F)(F)F)cc1 [Example 169] | 6.00 to 7.30 |
| NC(CNc1ncc(-c2ccc3cnccc3c2)s1)Cc1ccc(C(F)(F)F)cc1F (stereo not drawn) [Example 177, N-(-2-amino-3-(2-fluoro-4-(trifluoromethyl)phenyl)propyl)-5-(isoquinolin-6-yl)thiazol-2-amine] | > 7.30 |
| CC(O)[C@@H](c1ccc(C(F)(F)F)cc1)[C@H](N)CNc1ncc(-c2ccc3c(c2)CC(=O)N3)s1 (stereo partly drawn) [Example 243, 5-(2-((2S,3S)-2-amino-4-hydroxy-3-(4-(trifluoromethyl)phenyl)pentylamino)thiazol-5-yl)indolin-2-one] | > 7.30 |
| N[C@H](CNc1nc(-c2cnco2)c(-c2ccc3cnccc3c2)s1)Cc1ccc(C(F)(F)F)cc1 [Example 118, N—((S)-2-Amino-3-(4-(trifluoromethyl)phenyl)propyl)-5-(isoquinolin-6-yl)-4-(oxazol-5-yl)thiazol-2-amine] | 6.00 to 7.30 |
| N[C@H](CNc1ncc(-c2ccc3cnccc3c2)s1)Cc1ccc(Cl)s1 [Example 211, N—((S)-2-amino-3-(5-chlorothiophen-2-yl)propyl)-5-(isoquinolin-6-yl)thiazol-2-amine] | > 7.30 |
| C[C@@H](c1ccc(C(F)(F)F)cc1)[C@H](N)CNc1ncc(-c2cnc3c(c2)CC(=O)N3)s1 [Example 228, 5-(2-((2S,3S)-2-amino-3-(4-(trifluoromethyl)phenyl)butylamino)thiazol-5-yl)-1H-pyrrolo[2,3-b]pyridin-2(3H)-one] | 6.00 to 7.30 |
| COC(=O)c1nc(NC[C@@H](N)Cc2ccc(C(F)(F)F)cc2)sc1-c1ccc2cnccc2c1 [Example 117, Methyl 2-((S)-2-amino-3-(4-(trifluoromethyl)phenyl)-propylamino)-5-(isoquinolin-6-yl)thiazole-4-carboxylate] | > 7.30 |
| C[C@@H](c1ccc(C(F)(F)F)cc1)[C@H](N)CNc1ncc(-c2ccc3c(c2F)CC(=O)N3)s1 [Example 225, 5-(2-((2S,3S)-2-amino-3-(4-(trifluoromethyl)phenyl)butylamino)thiazol-5-yl)-4-fluoroindolin-2-one] | > 7.30 |
| CC1C(=O)Nc2ccc(-c3cnc(NC[C@@H](N)Cc4ccc(C(F)(F)F)cc4)s3)cc21 (stereo partly drawn) [Example 47, 5-(2-((S)-2-amino-3-(4-(trifluoromethyl)phenyl)propylamino)thiazol-5-yl)-3-methylindolin-2-one] | 6.00 to 7.30 |
